According to patent publication US12110276B2 (Genentech, Inc., priority 2021, dated 2024):

Experiments:
TEAD2 = TEAD2 (Homo sapiens (Human), UniProt Q15562);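 note: TR-FRET competition assay with His-tagged TEAD protein and a biotinylated lipid pocket probe, compound pre-incubated 30 min or 4 h at room temperature, displacement lowers signal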
TEAD3 = TEAD3 (Homo sapiens (Human), UniProt Q99594); test: TR-FRET lipid pocket probe competition assay (Lipid HTRF), TEAD3; assay type: binding; details: 4 hours pre-incubation; read-out: Lipid HTRF TEAD3 IC50
Method: His-tagged TEAD proteins are pre-incubated with TEAD project compounds for 30 minutes or 4 hours at room temperature. Biotinylated lipid pocket probes are then added to the TEAD/Compound mixture and incubated for 60 minutes at room temperature. The lipid pocket probe competes with the test compound for the TEAD lipid pocket until equilibrium is reached. After 60 minutes, Europium labelled anti-His (Perkin Elmer #AD0110) and XL665 labelled streptavidin (CIS Bio 610SAXAC) are added to the TEAD/test compound/lipid pocket mixture and incubated for 30 minutes or 4 hours. […] If a TEAD lipid pocket binder such as binds and displaces the lipid pocket probe, the disruption of the TEAD:probe interaction results in a decrease in TR-FRET signal. The potency of compounds as TEAD lipid pocket binders is determined by IC50 value generated using a non-linear 4 parameter curve fit.

TEAD4 = TEAD4 (Homo sapiens (Human), UniProt Q15561); test: TR-FRET lipid pocket probe competition assay (Lipid HTRF), TEAD4; assay type: binding; details: 4 hours pre-incubation; read-out: Lipid HTRF TEAD4 IC50;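 note: His-tagged TEAD4 with biotinylated lipid-pocket probe, read by Europium anti-His and XL665 streptavidin, where probe displacement lowers the TR-FRET signal, IC50 from a four-parameter fit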
TEAD1 = TEAD1 (Homo sapiens (Human), UniProt P28347); test: TR-FRET lipid pocket probe competition assay (Lipid HTRF), TEAD1; assay type: binding; details: 4 hours pre-incubation; read-out: Lipid HTRF TEAD1 IC50;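 note: His-tagged TEAD1 with biotinylated probe, detected via Europium anti-His and XL665 streptavidin, probe displacement lowers TR-FRET signal, IC50 from four-parameter nonlinear fit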
Sequence of TEAD1 (P28347 whole entry, species assumed): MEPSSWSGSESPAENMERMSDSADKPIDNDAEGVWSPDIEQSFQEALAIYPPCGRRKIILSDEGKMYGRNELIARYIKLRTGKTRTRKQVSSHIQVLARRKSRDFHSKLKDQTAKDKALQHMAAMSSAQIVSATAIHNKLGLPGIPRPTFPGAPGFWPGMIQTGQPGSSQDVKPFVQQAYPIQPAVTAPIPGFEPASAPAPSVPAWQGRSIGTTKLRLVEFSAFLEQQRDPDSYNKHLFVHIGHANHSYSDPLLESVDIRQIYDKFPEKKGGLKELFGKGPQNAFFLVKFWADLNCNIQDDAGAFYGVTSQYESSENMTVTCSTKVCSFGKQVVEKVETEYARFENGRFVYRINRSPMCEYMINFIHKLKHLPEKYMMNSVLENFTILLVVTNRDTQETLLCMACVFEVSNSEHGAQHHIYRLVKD

Sequence of TEAD2 (Q15562 whole entry, species assumed): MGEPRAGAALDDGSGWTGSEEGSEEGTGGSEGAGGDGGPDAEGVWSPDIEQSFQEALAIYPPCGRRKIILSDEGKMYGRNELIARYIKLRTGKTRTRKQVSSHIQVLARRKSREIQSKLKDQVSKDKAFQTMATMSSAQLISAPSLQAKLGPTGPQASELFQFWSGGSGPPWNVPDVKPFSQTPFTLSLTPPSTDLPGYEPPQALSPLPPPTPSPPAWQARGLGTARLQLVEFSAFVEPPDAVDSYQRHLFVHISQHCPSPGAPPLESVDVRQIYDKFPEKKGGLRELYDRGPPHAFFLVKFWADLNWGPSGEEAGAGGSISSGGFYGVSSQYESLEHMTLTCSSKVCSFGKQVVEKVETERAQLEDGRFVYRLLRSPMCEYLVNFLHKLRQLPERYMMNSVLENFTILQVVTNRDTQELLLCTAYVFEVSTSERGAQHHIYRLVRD
Sequence of TEAD3 (Q99594 whole entry, species assumed): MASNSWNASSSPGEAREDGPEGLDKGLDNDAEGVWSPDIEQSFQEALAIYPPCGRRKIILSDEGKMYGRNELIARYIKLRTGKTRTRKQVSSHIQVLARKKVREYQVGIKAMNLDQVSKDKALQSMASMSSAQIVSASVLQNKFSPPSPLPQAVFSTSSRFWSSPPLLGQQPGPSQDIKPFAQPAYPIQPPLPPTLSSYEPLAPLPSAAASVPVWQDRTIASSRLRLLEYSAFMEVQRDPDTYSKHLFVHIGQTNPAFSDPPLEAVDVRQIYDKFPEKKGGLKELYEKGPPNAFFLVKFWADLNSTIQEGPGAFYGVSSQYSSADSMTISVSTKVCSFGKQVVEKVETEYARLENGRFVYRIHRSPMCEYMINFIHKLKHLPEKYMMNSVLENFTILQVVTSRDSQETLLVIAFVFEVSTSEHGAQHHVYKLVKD
Sequence of TEAD4 (Q15561 whole entry, species assumed): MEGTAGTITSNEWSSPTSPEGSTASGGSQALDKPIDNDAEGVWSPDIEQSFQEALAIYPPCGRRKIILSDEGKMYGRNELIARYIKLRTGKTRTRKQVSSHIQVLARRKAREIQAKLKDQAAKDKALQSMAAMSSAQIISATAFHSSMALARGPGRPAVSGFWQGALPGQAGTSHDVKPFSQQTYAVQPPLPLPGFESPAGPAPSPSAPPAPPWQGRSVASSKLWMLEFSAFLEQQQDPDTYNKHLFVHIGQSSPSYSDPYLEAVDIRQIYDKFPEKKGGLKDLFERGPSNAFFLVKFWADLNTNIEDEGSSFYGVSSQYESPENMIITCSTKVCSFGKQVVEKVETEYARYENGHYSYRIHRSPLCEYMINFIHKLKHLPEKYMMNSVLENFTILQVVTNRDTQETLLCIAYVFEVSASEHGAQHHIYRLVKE

C=CC(=O)NCc1nn(-c2ccc(S(F)(F)(F)(F)F)cc2)c2cccc([C@@H](O)CO)c12 (single isomer, unassigned) [Compound 10, N-((4-(1,2-dihydroxyethyl)-1-(4-(pentafluoro-λ^6-sulfanyl)phenyl)-1H-indazol-3-yl)methyl)acrylamide]
IC50 (TEAD2): 180 nM | IC50 (TEAD3): 560 nM | IC50 (TEAD4): 49 nM | IC50 (TEAD1): 100 nM

C=CC(=O)NCc1nn(-c2ccc(S(F)(F)(F)(F)F)cc2)c2cccc([C@H](O)CO)c12 (single isomer, unassigned) [Compound 11, N-((4-(1,2-dihydroxyethyl)-1-(4-(pentafluoro-λ^6-sulfanyl)phenyl)-1H-indazol-3-yl)methyl)acrylamide]
IC50 (TEAD2): 86 nM | IC50 (TEAD3): 1300 nM | IC50 (TEAD4): 17 nM | IC50 (TEAD1): 23 nM

C=CC(=O)NCc1nn(-c2ccc(OC(F)(F)F)cc2)c2nccc([C@@H](O)CO)c12 (stereo in doubt) [Compound 16, N-((4-(1,2-dihydroxyethyl)-1-(4-(trifluoromethoxy)phenyl)-1H-pyrazolo[3,4-b]pyridin-3-yl)methyl)acrylamide]
IC50 (TEAD2): 120 nM | IC50 (TEAD3): 680 nM | IC50 (TEAD4): 61 nM | IC50 (TEAD1): 230 nM

C=CC(=O)NCc1nn(-c2ccc(OC(F)(F)F)cc2)c2nccc(N3CCC[C@H](O)C3)c12 (stereo in doubt) [Compound 33, N-((4-(3-hydroxypiperidin-1-yl)-1-(4-(trifluoromethoxy)phenyl)-1H-pyrazolo[3,4-b]pyridin-3-yl)methyl)acrylamide]
IC50 (TEAD2): 110 nM | IC50 (TEAD3): 17000 nM | IC50 (TEAD4): 11 nM | IC50 (TEAD1): 25 nM

C=CC(=O)NCc1nn(-c2ccc(OC(F)(F)F)cc2)c2nccc(N3CCC[C@@H](O)C3)c12 (stereo in doubt) [Compound 65, N-((4-(3-hydroxypiperidin-1-yl)-1-(4-(trifluoromethoxy)phenyl)-1H-pyrazolo[3,4-b]pyridin-3-yl)methyl)acrylamide]
IC50 (TEAD2): 99 nM | IC50 (TEAD3): 27000 nM | IC50 (TEAD4): 31 nM | IC50 (TEAD1): 150 nM

C=CC(=O)NCc1nn(-c2ccc(S(F)(F)(F)(F)F)cc2)c2ccccc12 [Compound 3, N-((1-(4-(pentafluoro-λ^6-sulfanyl)phenyl)-1H-indazol-3-yl)methyl)acrylamide]
IC50 (TEAD2): 250 nM | IC50 (TEAD3): 210 nM | IC50 (TEAD4): 7.9 nM | IC50 (TEAD1): 7 nM

C=CC(=O)NCc1nn(-c2ccc(OC(F)(F)F)cc2)c2cccc(CO)c12 [Compound 4, N-((4-(hydroxymethyl)-1-(4-(trifluoromethoxy)phenyl)-1H-indazol-3-yl)methyl)acrylamide]
IC50 (TEAD2): 140 nM | IC50 (TEAD3): 270 nM | IC50 (TEAD4): 59 nM | IC50 (TEAD1): 23 nM

C=CC(=O)NCc1nn(-c2ccc(S(F)(F)(F)(F)F)cc2)c2cccc(CO)c12 [Compound 5, N-((4-(hydroxymethyl)-1-(4-(pentafluoro-λ^6-sulfanyl)phenyl)-1H-indazol-3-yl)methyl)acrylamide]
IC50 (TEAD2): 310 nM | IC50 (TEAD3): 270 nM | IC50 (TEAD4): 37 nM | IC50 (TEAD1): 17 nM

C=CC(=O)NCc1nn(-c2ccc(S(F)(F)(F)(F)F)cc2)c2cccnc12 [Compound 12, N-((1-(4-(pentafluoro-λ^6-sulfanyl)phenyl)-1H-pyrazolo[4,3-b]pyridin-3-yl)methyl)acrylamide]
IC50 (TEAD2): 2800 nM | IC50 (TEAD3): 630 nM | IC50 (TEAD4): 43 nM | IC50 (TEAD1): 48 nM

C=CC(=O)NCc1nn(-c2ccc(S(F)(F)(F)(F)F)cc2)c2ncccc12 [Compound 13, N-((1-(4-(pentafluoro-λ^6-sulfanyl)phenyl)-1H-pyrazolo[3,4-b]pyridin-3-yl)methyl)acrylamide]
IC50 (TEAD2): 330 nM | IC50 (TEAD3): 230 nM | IC50 (TEAD4): 8.6 nM | IC50 (TEAD1): 10 nM

C=CC(=O)NCc1nn(-c2ccc(OC(F)(F)F)cc2)c2nccc([C@H](O)COC(C)=O)c12 [Compound 146, (S)-2-(3-(Acrylamidomethyl)-1-(4-(trifluoromethoxy)phenyl)-1H-pyrazolo[3,4-b]pyridin-4-yl)-2-hydroxyethyl acetate]
IC50 (TEAD2): 66 nM | IC50 (TEAD4): 28 nM | IC50 (TEAD1): 40 nM
